Laboratory results taken from patent publication US12281149B2, “Modulators of G-protein coupled receptors” (priority 2021, dated 2025).
*1 amine or outer side, *2 acyl side, *3 side chain or, on linkers, in order; H or OH if unused. Where a SMILES comes first, the peptide text is derived from it. Side-chain parts run from the residue outwards. [ ]: non-standard residue; d: D form. The star is where a group is joined. Isobutyryl(2-(3-CN-5-F-Ph)) = CC(C)(C(=O)*)c1cc(F)cc(C#N)c1; C20 diacid = O=C(O)CCCCCCCCCCCCCCCCCCC(=O)*; β2hAla(2S) = C[C@@H](CN[*:1])C(=O)[*:2]; γGlu = O=C(O)[C@H](CCC(=O)[*:2])N[*:1]; β2hAla(R) = C[C@H](CN[*:1])C(=O)[*:2]; d(β3hA) = C[C@@H](N)CC(=O)O; β3hA = C[C@H](N)CC(=O)O; AEEA = NCCOCCOCC(=O)O; Aib = CC(C)(N)C(=O)O

Experiments:
Type in all cases: cell-based
GLP-1 receptor [1] = target: T1, GLP-1 receptor (Homo sapiens, UniProt P43220); assay: HitHunter cAMP assay, GLP-1 receptor; settings: for EC50: CHO cells stably expressing human GLP-1 receptor, cAMP accumulation, 30 min, read-out: EC50 GLP-1R; for Emax: CHO cells, cAMP, normalized to maximum signal from GLP-1 (high) and DMSO (low), read-out: Emax GLP-1R
T1 sequence (P43220 24-463): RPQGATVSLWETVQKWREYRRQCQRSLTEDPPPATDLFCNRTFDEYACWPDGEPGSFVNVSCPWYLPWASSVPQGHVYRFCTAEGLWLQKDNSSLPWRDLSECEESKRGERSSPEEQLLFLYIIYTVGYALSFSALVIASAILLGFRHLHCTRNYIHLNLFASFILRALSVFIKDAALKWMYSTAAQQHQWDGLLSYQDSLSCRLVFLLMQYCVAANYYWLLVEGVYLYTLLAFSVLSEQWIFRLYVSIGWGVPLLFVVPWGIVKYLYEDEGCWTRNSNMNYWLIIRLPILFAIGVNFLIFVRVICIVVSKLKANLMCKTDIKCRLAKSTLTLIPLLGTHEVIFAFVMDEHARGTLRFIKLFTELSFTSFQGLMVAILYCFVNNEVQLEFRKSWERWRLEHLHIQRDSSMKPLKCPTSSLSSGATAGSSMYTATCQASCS

GIP receptor [2] = target: T2, GIP receptor (Homo sapiens, UniProt P48546); assay: HitHunter cAMP assay, GIP receptor; settings: for EC50: CHO cells stably expressing GIP receptor, cAMP accumulation, 30 min, read-out: EC50 GIP-1R; for Emax: CHO cells, cAMP, normalized to maximum signal from GIP (high) and DMSO (low), read-out: Emax GIP-1R
T2 sequence (P48546 22-466): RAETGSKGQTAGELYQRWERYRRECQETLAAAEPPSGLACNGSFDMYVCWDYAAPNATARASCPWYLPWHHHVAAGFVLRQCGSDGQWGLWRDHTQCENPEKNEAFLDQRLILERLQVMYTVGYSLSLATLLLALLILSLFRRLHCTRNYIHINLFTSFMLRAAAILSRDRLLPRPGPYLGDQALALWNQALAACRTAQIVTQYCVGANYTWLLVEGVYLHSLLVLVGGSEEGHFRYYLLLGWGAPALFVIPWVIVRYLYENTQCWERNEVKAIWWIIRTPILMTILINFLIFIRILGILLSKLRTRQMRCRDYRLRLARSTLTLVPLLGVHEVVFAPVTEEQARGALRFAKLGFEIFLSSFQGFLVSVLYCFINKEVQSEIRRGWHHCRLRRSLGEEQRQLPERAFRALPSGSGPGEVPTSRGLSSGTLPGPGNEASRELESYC
Experimental: CAMP accumulation was measured in Chinese hamster ovary (CHO) cells stably expressing the human GLP-1 receptor or GIP receptor using the HitHunter CAMP Assay for Small Molecules Kit (Eurofins). Briefly, cells were grown in Ham's F12 Nutrient Mix with 10% FBS and lifted with Cell dissociation buffer, Enzyme free, PBS based (ThermoFisher). Cells were pelleted and resuspended in Hank's buffered saline solution with 10 mM Hepes and 625 μM 3-isobutyl-1-methylxanthine. The antibody reagent was then added to cells at a 1:2 ratio and 5 μL of mixture was seeded in 384-well small volume white assay plates, at 10,000 cells/well. Cells were then treated with 50 nl compound in DMSO using an ECHO 550 acoustic dispenser (Labcyte) in a 20-point dose response format in triplicate for 30 min. Cells were the lysed and detection reagents added according to the manufacturer's protocol. After overnight incubation, luminescence was measured using a Perkin Elmer Envision plate reader. Raw data was normalized to the maximum signal from GLP-1 or GIP (high) and DMSO (low). Dose response curves were analyzed using GraphPad Prism 9.0.

GLP-1 receptor [3] = target: T1, GLP-1 receptor; assay: PathHunter β-arrestin assay, GLP-1 receptor; parameters: host or cells: PathHunter CHO-K1 GLP1R β-Arrestin Cell Line; settings: β-arrestin-2 recruitment, PathHunter CHO-K1 GLP1R β-Arrestin Cell Line, 90 min at 37° C.; normalized to GLP-1; read-out: GLP-1R β Arrestin EC50
GIP receptor [4] = target: T2, GIP receptor; assay: PathHunter β-arrestin assay, GIP receptor; parameters: host or cells: PathHunter CHO-K1 GIPR β-Arrestin Cell Line; settings: β-arrestin-2 recruitment, PathHunter CHO-K1 GIPR β-Arrestin Cell Line, 90 min at 37° C.; normalized to GIP; read-out: GIPR β Arrestin EC50

| SMILES | EC50 (GLP-1 receptor [1]) [nM] | Emax (GLP-1 receptor [1]) [%] | EC50 (GIP receptor [2]) [nM] | Emax (GIP receptor [2]) [%] | EC50 (GLP-1 receptor [3]) [nM] | EC50 (GIP receptor [4]) [nM] |
| --- | --- | --- | --- | --- | --- | --- |
| CC[C@H](C)[C@H](NC(=O)[C@H](CC(C)C)NC(=O)[C@H](Cc1c[nH]c2ccccc12)NC(=O)[C@H](CCC(N)=O)NC(=O)[C@@H](NC(=O)[C@H](Cc1ccccc1)NC(=O)[C@H](C)NC(=O)[C@H](CCCCNC(=O)COCCOCCNC(=O)COCCOCCNC(=O)CC[C@H](NC(=O)CCCCCCCCCCCCCCCCCCC(=O)O)C(=O)O)NC(=O)[C@H](CCC(N)=O)NC(=O)[C@H](C)NC(=O)[C@@H](NC(=O)[C@H](CCCCN)NC(=O)[C@H](CC(=O)O)NC(=O)[C@H](CC(C)C)NC(=O)C(C)(C)NC(=O)[C@@H](NC(=O)[C@H](CO)NC(=O)[C@H](Cc1ccc(O)cc1)NC(=O)[C@H](CC(=O)O)NC(=O)[C@H](CO)NC(=O)[C@@H](NC(=O)[C@H](Cc1ccccc1)NC(=O)[C@@H](NC(=O)CNC(=O)[C@H](CCC(=O)O)NC(=O)C[C@H](C)NC(=O)C(C)(C)c1cc(F)cc(C#N)c1)[C@@H](C)O)[C@@H](C)O)[C@@H](C)CC)[C@@H](C)CC)C(C)C)C(=O)N[C@@H](C)C(=O)NCC(=O)NCC(=O)N1CCC[C@H]1C(=O)N[C@@H](CO)C(=O)N[C@@H](CO)C(=O)NCC(=O)N[C@@H](C)C(=O)N1CCC[C@H]1C(=O)N1CCC[C@H]1C(=O)N1CCC[C@H]1C(=O)N[C@@H](CO)C(N)=O [Compound 222] ({Isobutyryl(2-(3-CN-5-F-Ph))}-[β3hA]EGTFTSDYSI[Aib]LDKIAQK([AEEA-AEEA-γGlu-C20 diacid])AFVQWLIAGGPSSGAPPPS-NH2) | 0.1 to 1 | 108 | 10 to 100 | 101 | > 1000 | > 1000 |
| CC[C@H](C)[C@H](NC(=O)[C@H](CC(C)C)NC(=O)[C@H](Cc1c[nH]c2ccccc12)NC(=O)[C@H](CCC(N)=O)NC(=O)[C@@H](NC(=O)[C@H](Cc1ccccc1)NC(=O)[C@H](C)NC(=O)[C@H](CCCCNC(=O)COCCOCCNC(=O)COCCOCCNC(=O)CC[C@H](NC(=O)CCCCCCCCCCCCCCCCCCC(=O)O)C(=O)O)NC(=O)[C@H](CCC(N)=O)NC(=O)[C@H](C)NC(=O)[C@@H](NC(=O)[C@H](CCCCN)NC(=O)[C@H](CC(=O)O)NC(=O)[C@H](CC(C)C)NC(=O)C(C)(C)NC(=O)[C@@H](NC(=O)[C@H](CO)NC(=O)[C@H](Cc1ccc(O)cc1)NC(=O)[C@H](CC(=O)O)NC(=O)[C@H](CO)NC(=O)[C@@H](NC(=O)[C@H](Cc1ccccc1)NC(=O)[C@@H](NC(=O)CNC(=O)[C@H](CCC(=O)O)NC(=O)C[C@@H](C)NC(=O)C(C)(C)c1cc(F)cc(C#N)c1)[C@@H](C)O)[C@@H](C)O)[C@@H](C)CC)[C@@H](C)CC)C(C)C)C(=O)N[C@@H](C)C(=O)NCC(=O)NCC(=O)N1CCC[C@H]1C(=O)N[C@@H](CO)C(=O)N[C@@H](CO)C(=O)NCC(=O)N[C@@H](C)C(=O)N1CCC[C@H]1C(=O)N1CCC[C@H]1C(=O)N1CCC[C@H]1C(=O)N[C@@H](CO)C(N)=O [Compound 223] ({Isobutyryl(2-(3-CN-5-F-Ph))}-[d(β3hA)]EGTFTSDYSI[Aib]LDKIAQK([AEEA-AEEA-γGlu-C20 diacid])AFVQWLIAGGPSSGAPPPS-NH2) | 10 to 100 | 96 | 100 to 1000 | 42 | > 1000 | > 1000 |
| CC[C@H](C)[C@H](NC(=O)[C@H](CC(C)C)NC(=O)[C@H](Cc1c[nH]c2ccccc12)NC(=O)[C@H](CCC(N)=O)NC(=O)[C@@H](NC(=O)[C@H](Cc1ccccc1)NC(=O)[C@H](C)NC(=O)[C@H](CCCCNC(=O)COCCOCCNC(=O)COCCOCCNC(=O)CC[C@H](NC(=O)CCCCCCCCCCCCCCCCCCC(=O)O)C(=O)O)NC(=O)[C@H](CCC(N)=O)NC(=O)[C@H](C)NC(=O)[C@@H](NC(=O)[C@H](CCCCN)NC(=O)[C@H](CC(=O)O)NC(=O)[C@H](CC(C)C)NC(=O)C(C)(C)NC(=O)[C@@H](NC(=O)[C@H](CO)NC(=O)[C@H](Cc1ccc(O)cc1)NC(=O)[C@H](CC(=O)O)NC(=O)[C@H](CO)NC(=O)[C@@H](NC(=O)[C@H](Cc1ccccc1)NC(=O)[C@@H](NC(=O)CNC(=O)[C@H](CCC(=O)O)NC(=O)[C@@H](C)CNC(=O)C(C)(C)c1cc(F)cc(C#N)c1)[C@@H](C)O)[C@@H](C)O)[C@@H](C)CC)[C@@H](C)CC)C(C)C)C(=O)N[C@@H](C)C(=O)NCC(=O)NCC(=O)N1CCC[C@H]1C(=O)N[C@@H](CO)C(=O)N[C@@H](CO)C(=O)NCC(=O)N[C@@H](C)C(=O)N1CCC[C@H]1C(=O)N1CCC[C@H]1C(=O)N1CCC[C@H]1C(=O)N[C@@H](CO)C(N)=O [Compound 224] ({Isobutyryl(2-(3-CN-5-F-Ph))}-[β2hAla(2S)]EGTFTSDYSI[Aib]LDKIAQK([AEEA-AEEA-γGlu-C20 diacid])AFVQWLIAGGPSSGAPPPS-NH2) | 0.1 to 1 | 102 | 1 to 10 | 103 | > 1000 | < 1000 |
| CC[C@H](C)[C@H](NC(=O)[C@H](CC(C)C)NC(=O)[C@H](Cc1c[nH]c2ccccc12)NC(=O)[C@H](CCC(N)=O)NC(=O)[C@@H](NC(=O)[C@H](Cc1ccccc1)NC(=O)[C@H](C)NC(=O)[C@H](CCCCNC(=O)COCCOCCNC(=O)COCCOCCNC(=O)CC[C@H](NC(=O)CCCCCCCCCCCCCCCCCCC(=O)O)C(=O)O)NC(=O)[C@H](CCC(N)=O)NC(=O)[C@H](C)NC(=O)[C@@H](NC(=O)[C@H](CCCCN)NC(=O)[C@H](CC(=O)O)NC(=O)[C@H](CC(C)C)NC(=O)C(C)(C)NC(=O)[C@@H](NC(=O)[C@H](CO)NC(=O)[C@H](Cc1ccc(O)cc1)NC(=O)[C@H](CC(=O)O)NC(=O)[C@H](CO)NC(=O)[C@@H](NC(=O)[C@H](Cc1ccccc1)NC(=O)[C@@H](NC(=O)CNC(=O)[C@H](CCC(=O)O)NC(=O)[C@H](C)CNC(=O)C(C)(C)c1cc(F)cc(C#N)c1)[C@@H](C)O)[C@@H](C)O)[C@@H](C)CC)[C@@H](C)CC)C(C)C)C(=O)N[C@@H](C)C(=O)NCC(=O)NCC(=O)N1CCC[C@H]1C(=O)N[C@@H](CO)C(=O)N[C@@H](CO)C(=O)NCC(=O)N[C@@H](C)C(=O)N1CCC[C@H]1C(=O)N1CCC[C@H]1C(=O)N1CCC[C@H]1C(=O)N[C@@H](CO)C(N)=O [Compound 225] ({Isobutyryl(2-(3-CN-5-F-Ph))}-[β2hAla(R)]EGTFTSDYSI[Aib]LDKIAQK([AEEA-AEEA-γGlu-C20 diacid])AFVQWLIAGGPSSGAPPPS-NH2) | 0.1 to 1 | 102 | 10 to 100 | 98 | > 1000 | > 1000 |
